In article PMC12434308 (Nature chemical biology, 2021):

How the values were obtained:
SARS-CoV-2 RBD [1] = molecular target: T1, SARS-CoV-2 RBD (Severe acute respiratory syndrome coronavirus 2, UniProt P0DTC2)
SARS-CoV-2 S protein = SARS-CoV-2 S protein (Severe acute respiratory syndrome coronavirus 2, UniProt P0DTC2)
RBD = details: read-out: Kd for the RBD; glycan immobilized, average MW 15,700 Da; cited from earlier work
SARS-CoV-2 RBD [2] = molecular target: T1, SARS-CoV-2 RBD; remark: listed apart in the source
Vero-E6 cells = assay type: cell-based
[3] = system: ferret lung tissue sections
ACE2+ HEK293 cells [4] = assay: fluorescent SARS-CoV-2 RBD trimer binding by flow cytometry; assay type: cell-based
[5] = system: SARS-CoV-2 pseudotyped lentivirus; assay type: cell-based
control lentivirus = assay type: cell-based
SARS-CoV-2 S1 protein = details: model sialylated species; cited from earlier work
ACE2+ HEK293 cells [6] = assay: SNA and PNA lectin staining by flow cytometry; assay type: cell-based; details: 3 d treatment, 300 μM
ACE2 = assay: anti-ACE2 antibody staining by flow cytometry; assay type: cell-based, human; details: ACE2+ HEK293 cells, 3FNeu5Ac treatment

In the case of “β-D-Gal-(1→3)-β-D-GalNAc-(1→4)-[α-D-Neu5Ac-(2→3)]-β-D-Gal-(1→4)-β-D-Glc-ceramide [GM1]”, the “ganglioside ions released from RBD complexes (nanodisc)” value (from here on “ganglioside ions released”) (SARS-CoV-2 RBD [1]) is reported as “measured”.
With α-Gal-Lewis X [glycan 50] the “relative CaR-ESI-MS response of ligand released from S protein” value (SARS-CoV-2 S protein) was “enhanced”.
For “α-Neu5Ac-(2→3)-β-D-Gal-(1→3)-β-D-GalNAc-(1→4)-[α-Neu5Ac-(2→8)-α-Neu5Ac-(2→3)]-β-D-Gal-(1→4)-β-D-Glc-ceramide [GT1b]”, the “ganglioside ions released” value (SARS-CoV-2 RBD [1]) was “no signals”.
For heparin, the Kd (RBD) is given as 1000 nM.
For “α-D-Neu5Ac-(2→3)-β-D-Gal-(1→4)-β-D-Glc-ceramide [GM3]”, the “ganglioside ions released” value (SARS-CoV-2 RBD [1]) was “measured”.
In the case of `COC1(C(=O)O)CC(O)C(NC(C)=O)C(C(O)C(O)CO)O1` (stereo not drawn) [MeαNeu5Ac, methyl α-sialoside], the “relative abundance of released 69 on addition of competitor” value (SARS-CoV-2 RBD [2]) is reported as “qualitatively similar results as 41”.
With “Galα(1-3)[Fucα(1-2)]Galβ(1-4)[Fucα(1-3)]Glc [glycan 87]” the “ligand released from RBD in presence of excess MeαNeu5Ac” value (SARS-CoV-2 RBD [2]) was “most abundant ligand released”.
With neuraminidase from Vibrio cholerae the “decrease of SARS-CoV-2 RBD binding” value (Vero-E6 cells) was roughly 80% and the “decrease of SARS-CoV-2 RBD binding” value [3] was roughly 80%.
In the case of `CCCCCCCCC(=O)N[C@H](CN1CCCC1)[C@H](O)c1ccc2c(c1)OCCO2` [GENZ-123346], the “SARS-CoV-2 RBD binding to glycolipid-depleted cells” value (ACE2+ HEK293 cells [4]; 5 μM, 48 h) is reported as “significant decreases”, the “pseudotyped viral infection of glycolipid-depleted cells” value [5] is reported as “significant decreases” and the pseudoviral entry [5] is reported as “failed to elicit an effect”. For the same compound, the “infection of control lentivirus” value (control lentivirus) was “did not show differences”.
In the case of `CC(=O)N[C@H]1[C@H]([C@H](O)[C@H](O)CO)O[C@@](O[C@H]2[C@@H](O)[C@@H](CO)O[C@@H](O[C@H]3[C@H](O)[C@@H](O)C(O)O[C@@H]3CO)[C@@H]2O)(C(=O)O)C[C@@H]1O` (some centres unmarked) [3′-sialyllactose], the Kd (SARS-CoV-2 S1 protein) is listed as “millimolar”.
In the case of `CC(=O)N[C@H]1[C@H]([C@H](O)[C@H](O)CO)O[C@](O)(C(=O)O)C(F)[C@@H]1O` (some centres unmarked) [3FNeu5Ac], the “Sia on the cell surface (SNA and PNA staining)” value (ACE2+ HEK293 cells [6]) is reported as “substantially decreased”, the “RBD binding to treated cells” value (ACE2+ HEK293 cells [4]; 300 μM, 72 h) is reported as “consistently decreased” and the “decrease in pseudotyped lentivirus infectivity” value [5] is reported as 30–40%. For the same compound, the “RBD binding to treated Vero-E6 cells” value (Vero-E6 cells) was “decrease in RBD binding”, the “ACE2 levels after ST inhibition” value (ACE2) was “did not alter” and the “viral entry of control lentivirus” value (control lentivirus) was “no differences were observed”.
In the case of “β-D-GalNAc-(1→4)-[α-D-Neu5Ac-(2→8)-α-D-Neu5Ac-(2→3)]-β-D-Gal-(1→4)-β-D-Glc-ceramide [GD2]”, the “ganglioside ions released” value (SARS-CoV-2 RBD [1]) is reported as “no signals”.
With “β-D-GalNAc-(1→4)-[α-D-Neu5Ac-(2→3)]-β-D-Gal-(1→4)-β-D-Glc-ceramide [GM2]” the “ganglioside ions released” value (SARS-CoV-2 RBD [1]) was “measured”.
For “α-D-Neu5Ac-(2→3)-β-D-Gal-(1→3)-β-D-GalNAc-(1→4)-[α-D-Neu5Ac-(2→3)]-β-D-Gal-(1→4)-β-D-Glc-ceramide [GD1a]”, the “ganglioside ions released” value (SARS-CoV-2 RBD [1]) was “no signals”.
